{
  "source": "ChEMBL document CHEMBL4433229",
  "about": "“Development of novel macrocyclic small molecules that target CTG trinucleotide repeats” (Bioorg Med Chem, 2019)",
  "key": {"[1]": {"assay": "Inhibition of MBNL1 binding to r(CUG)12 RNA sequence (unknown origin) assessed as inhibition constant by gel electrophoresis mobility shift assay"}, "[2]": {"assay": "Binding affinity to r(CUG)12 RNA sequence (unknown origin) assessed as equilibrium dissociation constant by isothermal titration method"}, "[3]": {"assay": "Binding affinity to d(CTG) duplex DNA sequence (unknown origin) assessed as equilibrium dissociation constant by isothermal titration method"}, "[4]": {"assay": "Binding affinity to d(CTG) T-T DNA sequence (unknown origin) assessed as equilibrium dissociation constant by isothermal titration method", "details": "read-out: Kd(app)"}, "[5]": {"assay": "Binding affinity to d(CTG) C-C DNA sequence (unknown origin) assessed as equilibrium dissociation constant by isothermal titration method", "details": "for Kd: read-out: Kd(app)"}, "[6]": {"assay": "Binding affinity to d(CTG) U-U DNA sequence (unknown origin) assessed as equilibrium dissociation constant by isothermal titration method"}, "[7]": {"assay": "Inhibition of d(CTG.CAG)74 DNA sequence (unknown origin) transcription at 25 uM pre-incubated for 3 hrs followed by addition of T7 polymerase and measured after 1.5 hrs by PAGE analysis"}, "[8]": {"assay": "Selectivity ratio of transcription inhibition of random DNA sequence (unknown origin) to transcription inhibition of d(CTG.CAG)74 DNA sequence (unknown origin) by PAGE analysis"}, "DNA [9]": {"system": "DNA", "assay": "Inhibition of random DNA sequence (unknown origin) transcription at 50 uM pre-incubated for 3 hrs followed by addition of T7 polymerase and measured after 1.5 hrs by PAGE analysis", "format": "nucleic-acid assay"}, "[10]": {"assay": "Binding affinity to d(CTG) A-A DNA sequence (unknown origin) assessed as equilibrium dissociation constant by isothermal titration method"}, "HeLa [11]": {"system": "HeLa", "assay": "Cytotoxicity against human HeLa cells assessed as reduction in cell viability after 72 hrs by SRB assay relative to control", "format": "cell-based"}, "[12]": {"assay": "Potency index, ratio of transcription inhibition of NC to transcription inhibition of compounds for d(CTG.CAG)74 DNA sequence by PAGE analysis"}, "[13]": {"assay": "Selectivity ratio of cytotoxicity of compound to cytotoxicity of NC for human HeLa cells", "format": "cell-based"}, "[14]": {"assay": "Binding affinity to d(CTG) T-T DNA sequence (unknown origin) assessed as mole fraction of compound required to show 2:1 stoichiometry for compound-DNA complex at 50 uM by Job's plot analysis"}, "[15]": {"assay": "Binding affinity to d(CTG) T-T 2 DNA sequence (unknown origin) assessed as equilibrium dissociation constant by isothermal titration method"}, "[16]": {"assay": "Binding affinity to d(CTG) T-T 3 DNA sequence (unknown origin) assessed as equilibrium dissociation constant by isothermal titration method"}, "HeLa [17]": {"system": "HeLa", "assay": "Cytotoxicity against human HeLa cells assessed as reduction in cell viability at 25 uM after 72 hrs by SRB assay relative to control", "format": "cell-based"}, "DNA [18]": {"system": "DNA", "assay": "Inhibition of random DNA sequence (unknown origin) transcription at 100 uM pre-incubated for 3 hrs followed by addition of T7 polymerase and measured after 1.5 hrs by PAGE analysis", "format": "nucleic-acid assay"}, "[19]": {"assay": "Binding affinity to d(CTG) T-T DNA sequence (unknown origin) assessed as mole fraction of compound required to show 1:1 stoichiometry for compound-DNA complex at 50 uM by Job's plot analysis"}, "[20]": {"assay": "Binding affinity to d(CTG) T-T DNA sequence (unknown origin) assessed as mole fraction of compound required to show 1.3:1 stoichiometry for compound-DNA complex at 50 uM by Job's plot analysis"}, "[21]": {"assay": "Displacement of ethidium from d(CTG)2 DNA sequence (unknown origin) and measured by fluorescence method relative to NC"}, "HeLa [22]": {"system": "HeLa", "assay": "Cytotoxicity against human HeLa cells assessed as reduction in cell viability at 0.2 to 100 uM after 72 hrs by SRB assay relative to control", "format": "cell-based"}, "DNA [23]": {"system": "DNA", "assay": "Inhibition of random DNA sequence (unknown origin) transcription at 25 uM pre-incubated for 3 hrs followed by addition of T7 polymerase and measured after 1.5 hrs by PAGE analysis", "format": "nucleic-acid assay"}, "DNA [24]": {"system": "DNA", "assay": "Inhibition of random DNA sequence (unknown origin) transcription at 0 to 50 uM pre-incubated for 3 hrs followed by addition of T7 polymerase and measured after 1.5 hrs by PAGE analysis", "format": "nucleic-acid assay"}, "HeLa [25]": {"system": "HeLa", "assay": "Cytotoxicity against human HeLa cells assessed as reduction in cell viability at 6 uM after 72 hrs by SRB assay relative to control", "format": "cell-based"}, "[26]": {"assay": "Inhibition of d(CTG.CAG)74 DNA sequence (unknown origin) transcription at 6 uM pre-incubated for 3 hrs followed by addition of T7 polymerase and measured after 1.5 hrs by PAGE analysis"}, "[27]": {"assay": "Binding affinity to d(CTG)2 DNA sequence (unknown origin) assessed as equilibrium dissociation constant by isothermal titration method"}, "[28]": {"assay": "Binding affinity to r(CUG)4 RNA sequence (unknown origin) assessed as equilibrium dissociation constant by isothermal titration method"}},
  "note": "Active and inactive are the calls of the source. The calls are words filed in the database; no cut-off is given here.",
  "data": [
    {"smiles": "N=C(NCCCCNc1nc(N)nc(N)n1)c1ccc(C(=N)NCCCCNc2nc(N)nc(N)n2)cc1", "values": [
      {"measurement": "Ki", "setting": "[1]", "value": 8, "unit": "µM"},
      {"measurement": "Ki", "setting": "[2]", "value": 8, "unit": "µM"}
    ]},
    {"smiles": "CNC(=O)c1cccc2c(NCCCCNc3nc(N)nc(N)n3)c3ccccc3nc12", "values": [
      {"measurement": "Kd", "setting": "[3]; read-out: Kd(app)", "value": 69, "unit": "µM"},
      {"measurement": "Kd", "setting": "[4]", "value": 5.8, "unit": "µM"},
      {"measurement": "Kd", "setting": "[5]", "value": 159, "unit": "µM"},
      {"measurement": "Kd", "setting": "[6]; read-out: Kd(app)", "value": 17.9, "unit": "µM"},
      {"measurement": "inhibition", "setting": "[7]", "value": 35, "unit": "%"},
      {"measurement": "Selectivity ratio", "setting": "[8]", "value": 3},
      {"measurement": "inhibition", "setting": "DNA [9]", "value": 45, "unit": "%"}
    ]},
    {"smiles": "Nc1nc2nc(n1)NCCCNc1c3ccccc3nc3c(cccc13)C(=O)NCCCCN2", "values": [
      {"measurement": "Kd(app)", "setting": "[3]", "value": "inactive"},
      {"measurement": "Kd", "setting": "[4]", "value": 34.9, "unit": "µM"},
      {"measurement": "Kd(app)", "setting": "[10]", "value": "inactive"},
      {"measurement": "Kd", "setting": "[5]", "value": 404, "unit": "µM"},
      {"measurement": "Kd(app)", "setting": "[6]", "value": "inactive"},
      {"measurement": "IC50", "setting": "HeLa [11]", "value": "> 100", "unit": "µM"},
      {"measurement": "inhibition", "setting": "[7]", "value": 60, "unit": "%"},
      {"measurement": "Selectivity ratio", "setting": "[12]", "value": 4},
      {"measurement": "selectivity ratio", "setting": "[13]", "value": 10},
      {"measurement": "Selectivity ratio", "setting": "[8]", "value": 3},
      {"measurement": "inhibition", "setting": "DNA [9]", "value": 45, "unit": "%"}
    ]},
    {"smiles": "Nc1nc2nc(n1)NCCCNc1c3ccccc3nc3c(cccc13)C(=O)NCCCN2", "values": [
      {"measurement": "Activity (mole fraction)", "setting": "[14]", "value": 0.68},
      {"measurement": "Kd", "setting": "[15]", "value": 19.8, "unit": "µM"},
      {"measurement": "Kd(app)", "setting": "[3]", "value": "inactive"},
      {"measurement": "Kd", "setting": "[4]", "value": 18.1, "unit": "µM"},
      {"measurement": "Kd(app)", "setting": "[10]", "value": "inactive"},
      {"measurement": "Kd(app)", "setting": "[5]", "value": "inactive"},
      {"measurement": "Kd(app)", "setting": "[6]", "value": "inactive"},
      {"measurement": "Kd", "setting": "[16]", "value": 15.1, "unit": "µM"},
      {"measurement": "Activity", "setting": "HeLa [17]", "value": "Non-Toxic"},
      {"measurement": "inhibition", "setting": "[7]", "value": 60, "unit": "%"},
      {"measurement": "inhibition", "setting": "DNA [18]", "value": 45, "unit": "%"},
      {"measurement": "Activity (mole fraction)", "setting": "[19]", "value": 0.5},
      {"measurement": "Activity (mole fraction)", "setting": "[20]", "value": 0.57},
      {"measurement": "Activity", "setting": "[21]", "value": "Active"},
      {"measurement": "Selectivity ratio", "setting": "[12]", "value": 4},
      {"measurement": "selectivity ratio", "setting": "[13]", "value": 10},
      {"measurement": "Selectivity ratio", "setting": "[8]", "value": 3}
    ]},
    {"smiles": "Nc1nc2nc(n1)NCCCNC(=O)c1cccc3c(c4ccccc4nc13)NCCCCN2", "values": [
      {"measurement": "Kd(app)", "setting": "[3]", "value": "inactive"},
      {"measurement": "Kd", "setting": "[4]", "value": 19.8, "unit": "µM"},
      {"measurement": "Kd(app)", "setting": "[10]", "value": "inactive"},
      {"measurement": "Kd(app)", "setting": "[5]", "value": "inactive"},
      {"measurement": "Kd(app)", "setting": "[6]", "value": "inactive"},
      {"measurement": "Activity", "setting": "HeLa [22]", "value": "Toxic"},
      {"measurement": "IC50", "setting": "HeLa [11]", "value": 20, "unit": "µM"},
      {"measurement": "inhibition", "setting": "[7]", "value": 85, "unit": "%"},
      {"measurement": "inhibition", "setting": "DNA [23]", "value": -0, "unit": "%"},
      {"measurement": "inhibition", "setting": "DNA [24]", "value": "< 10", "unit": "%"},
      {"measurement": "inhibition", "setting": "DNA [18]", "value": "< 20", "unit": "%"},
      {"measurement": "Activity", "setting": "HeLa [25]", "value": "< 10", "unit": "%"},
      {"measurement": "inhibition", "setting": "[26]", "value": 45, "unit": "%"},
      {"measurement": "Selectivity ratio", "setting": "[12]", "value": 4},
      {"measurement": "selectivity ratio", "setting": "[13]", "value": 10}
    ]},
    {"smiles": "Nc1nc2nc(n1)NCCCCCNc1c3ccccc3nc3c(cccc13)C(=O)NCCCCCN2", "values": [
      {"measurement": "Activity", "setting": "HeLa [22]", "value": "Toxic"},
      {"measurement": "selectivity ratio", "setting": "[13]", "value": 10}
    ]},
    {"smiles": "COc1ccc2nc3cc(Cl)ccc3c(NCCCCNc3nc(N)nc(N)n3)c2c1", "values": [
      {"measurement": "Kd", "setting": "[27]", "value": "0.3 to 0.4", "unit": "µM"},
      {"measurement": "Kd", "setting": "[28]", "value": "0.3 to 0.4", "unit": "µM"},
      {"measurement": "Ki", "setting": "[1]", "value": 6, "unit": "µM"}
    ]},
    {"smiles": "Nc1nc2nc(n1)NCCCCNc1c3ccccc3nc3c(cccc13)C(=O)NCCCCN2", "values": [
      {"measurement": "Activity", "setting": "HeLa [22]", "value": "Toxic"},
      {"measurement": "selectivity ratio", "setting": "[13]", "value": 10},
      {"measurement": "Selectivity ratio", "setting": "[8]", "value": 3}
    ]}
  ]
}
